This is an account of results in US20210024545A1, “SUBSTITUTED DIAZAHETERO-BICYCLIC COMPOUNDS AND THEIR USE” (Bayer Aktiengesellschaft, priority 2016, published 2021).

Holding throughout (assay type): cell-based
Test [1] concerns the target T1, human TASK-1 (Homo sapiens, UniProt O14649). As to the kind of experiment: Inhibition of recombinant TASK-1 in stably transfected CHO cells, KCl-induced depolarization, voltage-sensitive dye (B-2). The settings on record: depolarization induced by 40 mM potassium chloride, some mean values from multiple determinations. Details: expressed in transfected cells; host or cells: stably transfected CHO cells. The essentials: (§1)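 Stably transfected CHO cells loaded with a voltage-sensitive membrane potential dye. Depolarization was induced with 40 mM KCl, and compound inhibition of it was read by fluorescence. IC50 is the concentration blocking half of the KCl-induced depolarization; some values are means of multiple independent determinations.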

In test [2] the target is T1, human TASK-1. As to the kind of experiment: Two-electrode voltage clamp analysis of human TASK-1 channel in Xenopus laevis oocytes (B-1). Details: expressed in transfected cells; host or cells: Xenopus laevis oocytes injected with cRNA. Particulars: Xenopus laevis oocytes injected with TASK-1 cRNA, 21-22° C. Here is the method:
(§2) B-1. In Vitro Electrophysiological Analysis of the Human TASK-1 and TASK-3 Channels via Two-Electrode Voltage Clamp Technique in Xenopus laevis Oocytes
(§3) Xenopus laevis oocytes were selected as described elsewhere by way of illustration [Decher et al., FEBS Lett. 492, 84-89 (2001)]. Subsequently, the oocytes were injected with 0.5-5 ng of a cRNA solution coding for TASK-1 or TASK-3. For the electrophysiological analysis of the channel proteins expressed in the oocytes, the two-electrode voltage clamp technique [Stühmer, Methods Enzymol. 207, 319-339 (1992)] was used. The measurements were conducted as described [Decher et al., FEBS Lett. 492, 84-89 (2001)] at room temperature (21-22° C.) using a Turbo TEC 10CD amplifier (NPI), recorded at 2 kHz and filtered with 0.4 kHz. Substance administration was performed using a gravitation-driven perfusion system. Here, the oocyte is located in a measuring chamber and exposed to the solution stream of 10 ml/min The level in the measuring chamber is monitored and regulated by sucking off the solution using a peristaltic pump.

The target in test [3] is T2, human TASK-3 (Homo sapiens, UniProt Q9NPC2). Briefly: Inhibition of recombinant TASK-3 in stably transfected CHO cells, KCl-induced depolarization, voltage-sensitive dye (B-2). Details: expressed in transfected cells; host or cells: stably transfected CHO cells. The settings on record: depolarization induced by 40 mM potassium chloride, some mean values from multiple determinations. In outline:
as §1

Test [4] deals with T2, human TASK-3. As to the kind of experiment: Two-electrode voltage clamp analysis of human TASK-3 channel in Xenopus laevis oocytes (B-1). Particulars: Xenopus laevis oocytes injected with TASK-3 cRNA, 21-22° C. Details: expressed in transfected cells; host or cells: Xenopus laevis oocytes injected with cRNA. Here is the method: as §2, §3
Background: Two-electrode voltage clamp holds a large cell at a set potential and records current.

Test [5] concerns the target T1, human TASK-1. As to the kind of experiment: Washout rate after binding to the human TASK-1 channel, two-electrode voltage clamp in Xenopus laevis oocytes (B-4). Details: expressed in transfected cells; host or cells: Xenopus laevis oocytes injected with cRNA transcribed from the pSGEM vector. Particulars: TASK-1 inhibited beforehand by about 40% at the concentration of Table 3 (30-80 nM); restoration of current recorded over at least one hour. The source says:
The washout rate is defined as the washout of a compound according to the invention from the TASK-1 channel in % h^−1, measured by means of electrophysiological analysis on TASK-1-expressing Xenopus laevis oocytes via the two-electrode voltage clamp technique according to the description in section B-4.
B-4. In Vitro Electrophysiological Analysis of the Washout Rate of Compounds After Binding to the Human TASK-1 Channel via Two-Electrode Voltage Clamp Technique in Xenopus laevis Oocytes
Xenopus laevis oocytes were obtained from animals that had been anaesthetized with tricaine. Ovaries were treated with collagenase (1 mg/ml, Worthington, type II), stored in OR2 solution (82.5 mM NaCl, 2 mM KC1, 1 mM MgCl2, 5 mM HEPES; pH 7.4) for 120 min and then kept in the ND96 standard solution (96 mM NaCl, 2 mM KC1, 1.8 mM CaCl2, 1 mM MgCl2, 5 mM HEPES; pH 7.5) with additional sodium pyruvate (275 mg/l), theophylline (90 mg/1) and gentamicin (50 mg/1) at 18° C. hTASK-1 and hTASK-3 were subcloned into the pSGEM vector, and cRNA was produced after linearization with NHEI and in vitro transcription with T7 polymerase. Oocytes were injected individually with 5-20 ng of cRNA solution that encodes hTASK-1. Standard two-electrode voltage clamp recordings [Stühmer, Methods Enzymol. 207, 319-339 (1992)] were conducted at room temperature (21-22° C.) with a Turbo-TEC-10CD amplifier (NPI) as described above [Decher et al., FEBS Lett. 492, 84-89 (2001)]. The measurement interval was 2 kHz, and the data were filtered at 0.4 kHz. Substances were applied in a gravity-driven manner via the bath solution, using ND96. In summary, Xenopus laevis oocytes were selected as described above, injected with TASK-1 cRNA and subjected to an electrophysiological analysis via the two-electrode voltage clamp technique.
The TASK-1 channels were inhibited beforehand by a value of about 40% by administration of one of the compounds of the invention. The concentrations shown in Table 3 below were established here, which had been ascertained beforehand by determining the IC50 values in question. Subsequently, the restoration of the TASK-1-related membrane current was recorded in the voltage clamp over at least one hour. This restoration is caused by the washout of the compound in question from the TASK-1 channel
At least 6 oocytes were examined for every compound. The voltage clamp measurements took a total of at least 1.5 hours (administration of the inhibitor plus at least one subsequent hour of washout measurement).

Broadly, the IC50 is the point on the concentration scale where inhibition reaches its midpoint.

T1 sequence (O14649 whole entry): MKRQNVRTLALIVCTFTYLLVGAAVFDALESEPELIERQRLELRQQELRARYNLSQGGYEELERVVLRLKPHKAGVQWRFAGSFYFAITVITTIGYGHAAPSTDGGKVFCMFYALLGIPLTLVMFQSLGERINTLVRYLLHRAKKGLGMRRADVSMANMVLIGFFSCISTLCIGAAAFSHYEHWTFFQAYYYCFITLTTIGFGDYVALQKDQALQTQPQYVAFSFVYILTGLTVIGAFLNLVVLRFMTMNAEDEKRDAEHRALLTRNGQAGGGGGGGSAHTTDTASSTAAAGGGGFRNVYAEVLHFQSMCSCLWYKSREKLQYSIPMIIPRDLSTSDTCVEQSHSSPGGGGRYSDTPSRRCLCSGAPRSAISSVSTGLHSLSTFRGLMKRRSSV
T2 sequence (Q9NPC2 whole entry): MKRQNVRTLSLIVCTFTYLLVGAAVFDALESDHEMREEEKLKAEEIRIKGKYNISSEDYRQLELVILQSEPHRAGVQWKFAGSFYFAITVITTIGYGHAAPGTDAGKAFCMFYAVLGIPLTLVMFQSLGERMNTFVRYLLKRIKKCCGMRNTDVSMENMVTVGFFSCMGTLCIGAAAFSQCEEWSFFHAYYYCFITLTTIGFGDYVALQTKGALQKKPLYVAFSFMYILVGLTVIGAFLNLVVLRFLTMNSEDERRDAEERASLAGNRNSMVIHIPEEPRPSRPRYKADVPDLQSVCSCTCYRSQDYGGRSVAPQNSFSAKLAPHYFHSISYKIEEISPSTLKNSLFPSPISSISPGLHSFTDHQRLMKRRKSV

As for `O=C(C1CCCO1)N1C2CC1CN(Cc1c(-c3ccc(Cl)cc3)nc3ccccn13)C2` (racemic) [Example 115], the IC50 is 4.24 µM at human TASK-1 [1], 0.0228 ± 0.0037 µM against human TASK-1 [2], 2.4 µM on human TASK-3 [3] and 0.186 ± 0.0054 µM at human TASK-3 [4].
Consider `COc1ccc(F)c(C(=O)N2CC3CCC2CN3Cc2c(-c3ccc(C(C)C)nc3)nc3ccccn23)n1` (single isomer, unassigned) [Example 126, (3-Fluoro-6-methoxypyridin-2-yl)(5-{[2-(6-isopropylpyridin-3-yl)imidazo[1,2-a]pyridin-3-yl]methyl}-2,5-diazabicyclo[2.2.2]oct-2-yl)methanone], for which the IC50 at human TASK-1 [1] stood at 17.9 µM; at human TASK-1 [2], 0.127 ± 0.0085 µM; on human TASK-3 [3] it was 0.713 µM; on human TASK-3 [4] it was 0.7142 ± 0.0009 µM.
As to `COc1ccc(F)c(C(=O)N2CC3CCC2CN3Cc2c(-c3ccc(Cl)cn3)nc3ccccn23)n1` (single isomer, unassigned; enantiomer 1) [Example 24, (5-{[2-(5-Chloropyridin-2-yl)imidazo[1,2-a]pyridin-3-yl]methyl}-2,5-diazabicyclo[2.2.2]oct-2-yl)(3-fluoro-6-methoxypyridin-2-yl)methanone (enantiomer 1)], the IC50 on human TASK-1 [1] worked out at 0.14 µM; on human TASK-3 [3], 0.0045 µM; against human TASK-3 [4] it was 0.0312 ± 0.0058 µM.
With `COc1cccc(C(=O)N2C3COCC2CN(Cc2c(-c4ccc(Cl)cc4)nc4ccccn24)C3)n1` [Example 29, (7-{[2-(4-Chlorophenyl)imidazo[1,2-a]pyridin-3-yl]methyl}-3-oxa-7,9-diazabicyclo[3.3.1]non-9-yl)(6-methoxypyridin-2-yl)methanone], on human TASK-1 [5], the Washout rate was found to be 17 % h^−1. Besides, the results for the IC50 at human TASK-1 [1] and on human TASK-3 [3] were 0.46 µM and 0.05 µM, respectively.
Consider `COc1cccc(C(=O)N2C3CCC2CN(Cc2c(-c4ccc(Cl)cn4)nc4ccccn24)C3)n1` [Example 33, (3-{[2-(5-Chloropyridin-2-yl)imidazo[1,2-a]pyridin-3-yl]methyl}-3,8-diazabicyclo[3.2.1]oct-8-yl)(6-methoxypyridin-2-yl)methanone], for which the Washout rate on human TASK-1 [5] stood at 55 % h^−1. Further, the figures for the IC50 on human TASK-1 [1] and at human TASK-3 [3] were 0.14 µM and 0.026 µM, respectively.
In the case of `COc1cccc(C(=O)N2C[C@H]3CC[C@@H]2CN3Cc2c(-c3ccc(Cl)cc3)nc3ccccn23)n1` [Example 34], the IC50 on human TASK-1 [1] is 0.855 µM; on human TASK-1 [2], 0.0186 ± 0.0043 µM; at human TASK-3 [3], 0.084 µM; against human TASK-3 [4] it was 0.0103 ± 0.0009 µM.
For `O=C(C1CCCC1)N1CC2CCC(C1)N2Cc1c(-c2ccc(Cl)cc2)nc2ccccn12` [Example 86] the same measures were 0.331 µM, 0.0171 ± 0.0035 µM, 0.126 µM and 0.0584 ± 0.0121 µM.
For `COc1cccc(C(=O)N2CC3CCC(C2)N3Cc2c(-c3ccc(Cl)cc3)nc3ccccn23)n1` [Example 92] the same measures were 0.895 µM, 0.0135 ± 0.0012 µM, 0.029 µM and 0.0059 ± 0.0018 µM.
For `O=C(c1ccccc1F)N1C2CCC1CN(Cc1c(-c3ccc(Cl)cc3)nc3ccccn13)C2` [Example 102] the same measures were 0.277 µM, 0.0087 ± 0.0036 µM, 0.056 µM and 0.0043 ± 0.0035 µM.
Consider `COc1cccc(C(=O)N2C3CCC2CN(Cc2c(-c4ccc(Cl)cc4)nc4ccccn24)C3)n1` [Example 104], for which the IC50 on human TASK-1 [1] was 0.255 µM; against human TASK-1 [2], 0.0607 ± 0.012 µM; at human TASK-3 [3], 0.032 µM; at human TASK-3 [4], 0.0042 ± 0.001 µM.
`CCN(C(=O)N1C2COCC1CN(Cc1c(-c3ccc(Cl)cc3)nc3ccccn13)C2)C1CCCCC1` [Example 191, 7-{[2-(4-Chlorophenyl)imidazo[1,2-a]pyridin-3-yl]methyl}-N-cyclohexyl-N-ethyl-3-oxa-7,9-diazabicyclo[3.3.1]nonane-9-carboxamide]: the IC50 at human TASK-1 [1] is 9.5 µM; on human TASK-3 [3] it was 0.19 µM.
For `O=C(N1CCCC1)N1C2COCC1CN(Cc1c(-c3ccc(Cl)cc3)nc3ccccn13)C2` [Example 192, (7-{[2-(4-Chlorophenyl)imidazo[1,2-a]pyridin-3-yl]methyl}-3-oxa-7,9-diazabicyclo[3.3.l]non-9-yl)(pyrrolidin-1-yl)methanone] the same measures were 0.87 µM and 0.073 µM.
For `CCN(C(=O)N1C2COCC1CN(Cc1c(-c3ccc(Cl)cc3)nc3ccccn13)C2)c1ccccc1` [Example 193, 7-{[2-(4-Chlorophenyl)imidazo[1,2-a]pyridin-3-yl]methyl}-N-ethyl-N-phenyl-3-oxa-7,9-diazabicyclo[3.3.1]nonane-9-carboxamide] the same measures were 7.1 µM and 0.1 µM.
On the same counts, the results for `CC(C)N(C)C(=O)N1C2COCC1CN(Cc1c(-c3ccc(Cl)cc3)nc3ccccn13)C2` [Example 194, 7-{[2-(4-Chlorophenyl)imidazo[1,2-a]pyridin-3-yl]methyl}-N-isopropyl-N-methyl-3-oxa-7,9-diazabicyclo[3.3.1]nonane-9-carboxamide] are 3 µM and 0.29 µM.
Take `CCOC(=O)N1C2COCC1CN(Cc1c(-c3ccc(Cl)cc3)nc3ccccn13)C2` [Example 195, Ethyl 7-{[2-(4-chlorophenyl)imidazo[1,2-a]pyridin-3-yl]methyl}-3-oxa-7,9-diazabicyclo[3.3.1]nonane-9-carboxylate]: the IC50 on human TASK-1 [1] turned out to be 0.23 µM; at human TASK-3 [3] it was 0.0081 µM.
For the compound `O=C(OC1CCCC1)N1C2COCC1CN(Cc1c(-c3ccc(Cl)cc3)nc3ccccn13)C2` [Example 196, Cyclopentyl 7-{[2-(4-chlorophenyl)imidazo[1,2-a]pyridin-3-yl]methyl}-3-oxa-7,9-diazabicyclo[3.3.1]nonane-9-carboxylate], the IC50 amounted to 0.44 µM at human TASK-1 [1] and 0.052 µM on human TASK-3 [3].
Take `CCCOC(=O)N1C2COCC1CN(Cc1c(-c3ccc(Cl)cc3)nc3ccccn13)C2` [Example 197, Propyl 7-{[2-(4-chlorophenyl)imidazo[1,2-a]pyridin-3-yl]methyl}-3-oxa-7,9-diazabicyclo[3.3.1]nonane-9-carboxylate]: the IC50 on human TASK-1 [1] turned out to be 0.15 µM; at human TASK-3 [3] it was 0.013 µM.
As to `O=C(N1CCCCC1)N1C2COCC1CN(Cc1c(-c3ccc(Cl)cc3)nc3ccccn13)C2` [Example 198, (7-{[2-(4-Chlorophenyl)imidazo[1,2-a]pyridin-3-yl]methyl}-3-oxa-7,9-diazabicyclo[3.3.1]non-9-yl)(piperidin-1-yl)methanone], the values for the IC50 at human TASK-1 [1] and at human TASK-3 [3] were 0.81 µM and 0.06 µM, respectively.
